# Tests used:
# p38MAPKα = p38MAPKα (Homo sapiens, UniProt Q16539); conditions: read-out: IC50 for p38MAPKα; disclosed in WO 2004/110990; cited from earlier work
# [1] = test system: patients with moderate to severe rheumatoid arthritis; conditions: VeRA trial, cohort of 315 patients with moderate to severe rheumatoid arthritis; placebo effect about 30 %; cited from earlier work
# [2] = test system: patients with moderate to severe rheumatoid arthritis; assay: VeRA trial of p38MAPK inhibitor in rheumatoid arthritis patients; assay type: in vivo; conditions: according to a Monte Carlo simulation of the distribution of the effects
# Experimental: It has been claimed that p38MAPK inhibitors were of benefit in treating a large variety of disorders. […] In the VeRA trial, which was conducted to evaluate treatment effects in terms of characteristic manifestations of the disease such as tender joints, swollen joints, morning stiffness and disease activity in a cohort of 315 patients with moderate to severe rheumatoid arthritis, approximately 40 % of patients were responsive to treatment with the p38MAPK inhibitor VX-702, compared to a placebo effect of about 30 %, arguing for a biochemical net response rate of about 28 % according to a Monte Carlo simulation of the distribution of the effects. So far, no explanation for this evident dichotomy between responders and non-responders has been proposed yet.
# Chain of p38MAPKα (Q16539 whole entry): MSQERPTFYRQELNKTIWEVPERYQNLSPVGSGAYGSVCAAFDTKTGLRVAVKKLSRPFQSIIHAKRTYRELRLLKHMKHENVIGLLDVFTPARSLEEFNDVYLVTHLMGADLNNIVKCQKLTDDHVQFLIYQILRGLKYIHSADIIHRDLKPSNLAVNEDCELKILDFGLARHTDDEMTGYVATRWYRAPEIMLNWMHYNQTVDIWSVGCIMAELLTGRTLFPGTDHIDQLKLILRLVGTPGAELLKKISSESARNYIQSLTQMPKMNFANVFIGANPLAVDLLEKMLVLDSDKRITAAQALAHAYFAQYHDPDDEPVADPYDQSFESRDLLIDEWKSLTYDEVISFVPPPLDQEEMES
Structure (SMILES),IC50 (p38MAPKα) [nM],patients responsive to treatment [1],biochemical net response rate [2]
Fc1ccc(-c2nc3occn3c2-c2ccnc(NC3CC3)n2)cc1 [4-(4-fluorophenyl)-5-(2-[cyclopropyl-amino]-pyrimidyl-4-yl)-imidazooxazole],0.44,,
NC(=O)c1ccc(N(C(N)=O)c2c(F)cccc2F)nc1-c1ccc(F)cc1F [VX-702],,approximately 40%,about 28%
